Test results: ChEMBL document CHEMBL1140148, “Structure-activity studies on a series of a 2-aminopyrimidine-containing histamine H4 receptor ligands” (J Med Chem, 2008)

Assays:
[1] = target: Histamine H4 receptor (Rattus norvegicus) (UniProt Q91ZY1); assay: Agonist activity at rat histamine H4 receptor expressed in HEK293 cells coexpressing Gqi5 protein assessed as calcium flux by FLIPR assay relative to histamine; type: functional, cell-based
[2] = target: T1, Histamine H4 receptor (Homo sapiens, UniProt Q9H3N8); assay: Agonist activity at human histamine H4 receptor expressed in HEK293 cells coexpressing Gqi5 protein assessed as calcium flux by FLIPR assay; type: functional, cell-based
[3] = target: T1, Histamine H4 receptor; assay: Agonist activity at human histamine H4 receptor expressed in HEK293 cells coexpressing Gqi5 protein assessed as calcium flux by FLIPR assay relative to histamine; type: functional, cell-based
[4] = target: T2, Histamine H4 receptor (Rattus norvegicus, UniProt Q91ZY1); assay: Agonist activity at rat histamine H4 receptor expressed in HEK293 cells coexpressing Gqi5 protein assessed as calcium flux by FLIPR assay; type: functional, cell-based
[5] = target: T1, Histamine H4 receptor; settings: HEK293
[6] = target: Histamine H4 receptor (Rattus norvegicus) (UniProt Q91ZY1); settings: HEK293
[7] = target: Histamine H4 receptor (Mus musculus, UniProt Q91ZY2); assay: Agonist activity at mouse histamine H4 receptor expressed in HEK293 cells coexpressing Gqi5 protein assessed as calcium flux by FLIPR assay; type: functional, cell-based
[8] = target: Histamine H3 receptor (Rattus norvegicus, UniProt Q9QYN8); assay: Binding affinity to rat histamine H3 receptor
[9] = test system: Brain; assay: Drug level in rat brain assessed as metabolism to 4-(2-amino-6-(piperazin-1-yl)pyrimidin-4-yl)benzonitrile at 30 umol/kg, ip; type: ADME, organism-based; settings: in vivo
[10] = target: Histamine H3 receptor (Homo sapiens, UniProt Q9Y5N1); assay: Binding affinity to human histamine H3 receptor
[11] = target: T2, Histamine H4 receptor; assay: Displacement of [3H]histamine from rat histamine H4 receptor expressed in HEK293 cells; type: cell-based
[12] = target: T1, Histamine H4 receptor; assay: Displacement of [3H]histamine from human histamine H4 receptor expressed in HEK293 cells; type: cell-based

T2 sequence (Q91ZY1 whole entry): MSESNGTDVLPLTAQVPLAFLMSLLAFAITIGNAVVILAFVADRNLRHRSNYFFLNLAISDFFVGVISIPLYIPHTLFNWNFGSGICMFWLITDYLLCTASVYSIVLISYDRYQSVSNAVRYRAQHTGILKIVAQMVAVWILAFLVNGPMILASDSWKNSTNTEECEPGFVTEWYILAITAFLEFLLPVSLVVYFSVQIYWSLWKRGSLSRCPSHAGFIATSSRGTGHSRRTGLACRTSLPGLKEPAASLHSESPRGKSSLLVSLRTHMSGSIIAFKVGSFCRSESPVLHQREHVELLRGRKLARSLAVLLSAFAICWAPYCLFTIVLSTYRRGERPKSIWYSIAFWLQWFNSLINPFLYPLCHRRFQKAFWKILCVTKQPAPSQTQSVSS
Histamine H4 receptor (Rattus norvegicus), sequence (Q91ZY1 whole entry): as above
T1 sequence (Q9H3N8 whole entry): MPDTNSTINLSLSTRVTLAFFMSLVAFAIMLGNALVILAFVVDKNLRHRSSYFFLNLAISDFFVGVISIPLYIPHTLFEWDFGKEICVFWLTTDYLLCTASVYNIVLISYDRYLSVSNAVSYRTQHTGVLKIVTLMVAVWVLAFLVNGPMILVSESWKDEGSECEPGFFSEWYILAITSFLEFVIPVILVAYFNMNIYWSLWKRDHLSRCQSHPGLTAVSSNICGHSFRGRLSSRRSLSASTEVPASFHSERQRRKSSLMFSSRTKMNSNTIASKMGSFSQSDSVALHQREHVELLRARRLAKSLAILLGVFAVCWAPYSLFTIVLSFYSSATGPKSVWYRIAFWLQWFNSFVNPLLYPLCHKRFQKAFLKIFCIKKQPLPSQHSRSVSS
Histamine H4 receptor (Mus musculus, UniProt Q91ZY2), sequence (Q91ZY2 whole entry): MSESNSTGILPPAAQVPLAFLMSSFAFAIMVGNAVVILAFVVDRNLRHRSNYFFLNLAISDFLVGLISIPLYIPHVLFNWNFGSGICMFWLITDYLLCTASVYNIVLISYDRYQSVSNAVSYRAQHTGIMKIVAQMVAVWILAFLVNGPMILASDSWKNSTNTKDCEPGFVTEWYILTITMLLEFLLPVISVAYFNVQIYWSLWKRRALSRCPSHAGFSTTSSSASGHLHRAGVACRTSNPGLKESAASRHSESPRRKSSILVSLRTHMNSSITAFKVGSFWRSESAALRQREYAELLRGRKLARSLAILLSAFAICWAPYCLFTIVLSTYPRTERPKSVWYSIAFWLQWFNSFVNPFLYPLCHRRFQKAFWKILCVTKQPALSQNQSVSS
Histamine H3 receptor (Homo sapiens, UniProt Q9Y5N1), sequence (Q9Y5N1 whole entry): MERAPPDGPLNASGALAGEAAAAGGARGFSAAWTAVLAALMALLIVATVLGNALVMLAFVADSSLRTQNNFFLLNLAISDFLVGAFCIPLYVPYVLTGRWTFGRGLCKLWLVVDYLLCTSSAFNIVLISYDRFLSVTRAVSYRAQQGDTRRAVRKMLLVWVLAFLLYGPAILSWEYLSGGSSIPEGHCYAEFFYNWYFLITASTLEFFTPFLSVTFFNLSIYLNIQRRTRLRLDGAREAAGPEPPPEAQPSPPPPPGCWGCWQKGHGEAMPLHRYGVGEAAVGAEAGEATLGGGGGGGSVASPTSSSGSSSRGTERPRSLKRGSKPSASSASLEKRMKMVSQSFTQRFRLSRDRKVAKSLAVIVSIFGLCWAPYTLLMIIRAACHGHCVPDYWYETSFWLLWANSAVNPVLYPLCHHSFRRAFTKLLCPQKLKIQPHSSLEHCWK
Histamine H3 receptor (Rattus norvegicus, UniProt Q9QYN8), sequence (Q9QYN8 whole entry): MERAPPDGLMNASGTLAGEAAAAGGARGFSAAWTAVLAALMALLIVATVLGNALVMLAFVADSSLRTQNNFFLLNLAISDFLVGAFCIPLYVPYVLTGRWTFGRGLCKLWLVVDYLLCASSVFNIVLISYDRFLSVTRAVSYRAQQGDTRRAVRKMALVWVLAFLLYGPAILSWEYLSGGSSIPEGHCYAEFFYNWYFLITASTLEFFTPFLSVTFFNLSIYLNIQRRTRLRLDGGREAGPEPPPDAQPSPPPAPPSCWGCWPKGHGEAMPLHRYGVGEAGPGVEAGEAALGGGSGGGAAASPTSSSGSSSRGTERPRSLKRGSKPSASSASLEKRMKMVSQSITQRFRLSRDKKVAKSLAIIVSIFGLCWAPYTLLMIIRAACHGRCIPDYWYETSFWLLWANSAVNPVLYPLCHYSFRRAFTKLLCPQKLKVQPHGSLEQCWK

Row | SMILES | Efficacy [1] [%] | EC50 [2] [nM] | Efficacy [3] [%] | EC50 [4] [nM] | pKb [5] | further results
1 | CN1CCN(c2cc(-n3ccccc3=O)nc(N)n2)CC1 | 33 | 3890 | 27 | 14100 | – | –
2 | CN1CCN(c2cc(-c3cccc4ccccc34)nc(N)n2)CC1 | – | – | – | – | 7.81 | pKb [6]: 7.27
3 | N#Cc1ccc(-c2cc(N3CCNCC3)nc(N)n2)cc1 | 67 | – | – | 245 | 8.08 | EC50 [7]: 102 nM; Ki [8]: 120 nM; Drug uptake [9]: 610 ng/mL; Ki [10]: 933 nM; Ki [11]: 339 nM; Ki [12]: 41.7 nM
4 | CN1CCN(c2cc(-n3cnc(-c4ccccc4)c3)nc(N)n2)CC1 | – | – | – | – | 5.68 | pKb [6]: 5.74
5 | CN1CCN(c2cc(-c3c[nH]cn3)nc(N)n2)CC1 | 77 | 16.2 | 41 | 389 | – | –
6 | CN1CCN(c2cc(N3CCOCC3)nc(N)n2)CC1 | 87 | – | – | 339 | 7.16 | –
7 | CN1CCN(c2cc(-n3ccnc3)nc(N)n2)CC1 | 56 | 2510 | 31 | 7940 | – | –
8 | CN1CCN(c2cc(NCc3ccccc3)nc(N)n2)CC1 | – | 64.6 | 56 | 490 | – | –
9 | COc1cnc(N)nc1N1CCN(C)CC1 | 65 | – | – | 631 | 6.9 | –
10 | CN1CCN(c2cc(-c3cn[nH]c3)nc(N)n2)CC1 | 53 | – | – | 1820 | 8.38 | –
11 | CN1CCN(c2cc(I)nc(N)n2)CC1 | 67 | – | – | 2040 | 6.33 | –
12 | CN1CCN(c2cc(-n3cnc4ccccc43)nc(N)n2)CC1 | – | 178 | 82 | – | – | pKb [6]: 6.46
13 | COc1nc(N2CCN(C)CC2)cc(C(C)(C)C)n1 | 90 | 1200 | 43 | 4680 | – | –
14 | CN1CCC(c2cc(C(C)(C)C)nc(N)n2)CC1 | 55 | – | – | 3630 | 5.87 | –
15 | CN1CCN(c2cc(-c3cccc(-c4ccccc4)c3)nc(N)n2)CC1 | – | – | – | – | 6.85 | pKb [6]: 6.38
